23 compounds from patent US20240109900A1, “AZABICYCLIC SHP2 INHIBITORS” (IRBM S.P.A., priority 2021, published 2024) can be followed below.

Test [1] deals with SHP-2 enzyme (Met1-Leu525) (Homo sapiens (Human), UniProt Q06124). Kind of test: SHP2 inhibition enzymatic assay. The format is biochemical. The settings on record: 0.5 nM SHP-2 activated by 500 nM IRS1 peptide, 75 μM DiFMUP substrate; read-out: SHP2wt-IC50. In short, it runs like this:
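Compounds were preincubated 30 min with 0.5 nM SHP-2 (Met1-Leu525) plus 500 nM IRS1 activating peptide (pH 7.2 HEPES, 5 mM DTT), then 75 μM DiFMUP substrate reacted 30 min at room temperature. After bpV quench, DiFMUP fluorescence gave % inhibition; four-parameter logistic fit yielded IC50.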

The test system of test [2] is ERK phosphorylation in KYSE-520 cells. The test is described as follows: Phospho-ERK cellular assay. In kind it is cell-based. The settings on record: read-out: PERK IC50. The method, boiled down:
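TR-FRET read-out of ERK1/2 Thr202/Tyr204 phosphorylation was taken after overnight antibody incubation at room temperature. Before that, KYSE-520 cells were treated 2 h at 37 °C with compound dilutions and lysed 30 min. Percent inhibition relative to vehicle and cell-free wells was fitted four-parametrically to give IC50.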

Setting [3] is: Homo sapiens, KYSE-520, 2 h, KYSE-520 cells, 2 h at 37° C., phospho-ERK1/2 (Thr202/Tyr204) TR-FRET.
[4] abbreviates: KYSE-520 cells, 2 h at 37° C., phospho-ERK1/2 (Thr202/Tyr204) TR-FRET.

Read-outs that look alike come from different tables or passages of the source.

Chain of SHP-2 enzyme (Met1-Leu525) (Q06124 1-525): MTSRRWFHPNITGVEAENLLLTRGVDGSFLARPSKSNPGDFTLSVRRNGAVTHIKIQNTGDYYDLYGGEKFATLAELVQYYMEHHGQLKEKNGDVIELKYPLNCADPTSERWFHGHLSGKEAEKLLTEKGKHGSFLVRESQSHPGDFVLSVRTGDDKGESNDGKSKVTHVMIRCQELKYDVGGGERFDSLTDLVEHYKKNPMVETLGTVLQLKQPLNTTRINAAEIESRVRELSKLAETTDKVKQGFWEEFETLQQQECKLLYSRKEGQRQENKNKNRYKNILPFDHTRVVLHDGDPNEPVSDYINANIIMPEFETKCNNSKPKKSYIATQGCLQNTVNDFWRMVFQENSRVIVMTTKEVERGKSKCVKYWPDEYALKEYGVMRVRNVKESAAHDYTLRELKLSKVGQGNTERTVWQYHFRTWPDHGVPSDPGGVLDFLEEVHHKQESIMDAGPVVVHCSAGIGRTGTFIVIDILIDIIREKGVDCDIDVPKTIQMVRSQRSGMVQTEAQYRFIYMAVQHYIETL

As to `CN(C)C(=O)c1ccc(-c2n[nH]c3nc(N4CC[C@@H]5[C@H](C4)[C@@]5(CN)c4ccccc4F)cnc23)c2cccnc12` [Example 212, 5-(6-((1S,6R,7R)-7-(aminomethyl)-7-(2-fluorophenyl)-3-azabicyclo[4.1.0]heptan-3-yl)-1H-pyrazolo[3,4-b]pyrazin-3-yl)-N,N-dimethylquinoline-8-carboxamide], the IC50 in test [1] was under 500 nM; in test [2] (setting [3]) it was over 5000 nM.

For `NC[C@]1(c2ccccc2F)[C@@H]2CCN(c3cnc4c(-c5ccc(S(=O)(=O)F)c6ncccc56)n[nH]c4n3)C[C@@H]21` [Example 508, 5-(6-((1S,6R,7R)-7-(aminomethyl)-7-(2-fluorophenyl)-3-azabicyclo[4.1.0]heptan-3-yl)-1H-pyrazolo[3,4-b]pyrazin-3-yl)quinoline-8-sulfonyl fluoride], the IC50 was under 500 nM in test [1] and under 1000 nM in test [2] (Homo sapiens, KYSE-520, 2 h).

On to `Cc1cc([C@@]2(CN)[C@@H]3CCN(c4cnc5c(-c6ccnc7ccc(Cl)cc67)n[nH]c5n4)C[C@@H]32)no1` [Example 42, ((1S,6R,7S)-3-(3-(6-chloroquinolin-4-yl)-1H-pyrazolo[3,4-b]pyrazin-6-yl)-7-(5-methylisoxazol-3-yl)-3-azabicyclo[4.1.0]heptan-7-yl)methanamine], for which the IC50 in test [1] was in the range of 500 to 3000 nM; in test [2] (setting [3]), 1000 to 5000 nM.

With `NC[C@]1(c2ccccc2F)[C@@H]2CCN(c3cnc4c(-c5ccc(-c6cc(F)cc(F)c6)cc5Cl)n[nH]c4n3)C[C@@H]21` [Example 323, ((1S,6R,7R)-3-(3-(3-chloro-3′,5′-difluoro-[1,1′-biphenyl]-4-yl)-1H-pyrazolo[3,4-b]pyrazin-6-yl)-7-(2-fluorophenyl)-3-azabicyclo[4.1.0]heptan-7-yl)methanamine], the 50% inhibitory concentration (IC50) was under 500 nM in test [1] and under 1000 nM in test [2] (setting [3]).

For `Cc1cc([C@@]2(CN)[C@@H]3CCN(c4cnc5c(-c6ccc7nc(C(F)(F)F)ccc7c6)n[nH]c5n4)C[C@@H]32)no1` [Example 150, ((1S,6R,7S)-7-(5-methylisoxazol-3-yl)-3-(3-(2-(trifluoromethyl)quinolin-6-yl)-1H-pyrazolo[3,4-b]pyrazin-6-yl)-3-azabicyclo[4.1.0]heptan-7-yl)methanamine], the IC50 is under 500 nM in test [1] and under 1000 nM in test [2] (setting [3]).

`NC[C@]1(c2ccccc2F)[C@@H]2CCN(c3nccn4c(-c5cccc(Cl)c5Cl)ncc34)C[C@@H]21` [Example 416, ((1S,6R,7R)-3-(3-(2,3-dichlorophenyl)imidazo[1,5-a]pyrazin-8-yl)-7-(2-fluorophenyl)-3-azabicyclo[4.1.0]heptan-7-yl)methanamine]: the IC50 was under 500 nM in test [1] and over 5000 nM in test [2] (setting [3]).

With `NCC1(c2ncccn2)C2CCN(c3nc4nc(Sc5cccnc5C(F)(F)F)cnc4[nH]3)CC21` (stereo not shown) [Example 66, (7-(pyrimidin-2-yl)-3-(5-((2-(trifluoromethyl)pyridin-3-yl)thio)-1H-imidazo[4,5-b]pyrazin-2-yl)-3-azabicyclo[4.1.0]heptan-7-yl)methanamine], the IC50 was under 500 nM in test [1] and under 1000 nM in test [2] (setting [3]).

For `Cc1cc([C@@]2(CN)[C@@H]3CCN(c4cnc5c(-c6ccc7nn(C)c(C)c7c6Cl)n[nH]c5n4)C[C@@H]32)no1` [Example 108, ((1S,6R,7S)-3-(3-(4-chloro-2,3-dimethyl-2H-indazol-5-yl)-1H-pyrazolo[3,4-b]pyrazin-6-yl)-7-(5-methylisoxazol-3-yl)-3-azabicyclo[4.1.0]heptan-7-yl)methanamine], the IC50 in test [1] was under 500 nM; in test [2] (setting [3]), under 1000 nM.

In the case of `Cc1csc([C@@]2(CN)[C@@H]3CN(c4cnc5c(-c6ccc7nsnc7c6Cl)n[nH]c5n4)C[C@@H]32)n1` [Example 467], the IC50 was under 500 nM in test [1] and under 1000 nM in test [2] (setting [4]).

As to `Cc1cc(C2(CN)C3CCN(c4nc5[nH]nc(-c6ccc7nc(C)sc7c6Cl)c5nc4C)CC32)no1` (stereo not shown) [Example 110, (3-(3-(7-chloro-2-methylbenzo[d]thiazol-6-yl)-5-methyl-1H-pyrazolo[3,4-b]pyrazin-6-yl)-7-(5-methylisoxazol-3-yl)-3-azabicyclo[4.1.0]heptan-7-yl)methanamine], the IC50 in test [1] was under 500 nM; in test [2] (setting [3]), under 1000 nM.

With `Cc1csc(C2(CN)C3CCN(c4nc5[nH]nc(-c6cccc(Cl)c6Cl)c5nc4CO)CC32)n1` (stereo not shown) [Example 102, (6-(7-(aminomethyl)-7-(4-methylthiazol-2-yl)-3-azabicyclo[4.1.0]heptan-3-yl)-3-(2,3-dichlorophenyl)-1H-pyrazolo[3,4-b]pyrazin-5-yl)methanol], the 50% inhibitory concentration (IC50) in test [1] was under 500 nM; in test [2] (setting [3]), under 1000 nM.

`NC[C@]1(c2ccccc2F)[C@@H]2CCN(c3cnc4c(-c5ccc6c(=O)[nH]ncc6c5Cl)n[nH]c4n3)C[C@@H]21` [Example 340]: the figures for the IC50 in test [1] and in test [2] (setting [4]) were under 500 nM and under 1000 nM, respectively.

For the compound `Cn1cc2c(Cl)c(-c3n[nH]c4nc(N5CC[C@@H]6[C@H](C5)[C@@]6(CN)c5c(F)cccc5F)cnc34)ccc2n1` [Example 117, ((1S,6R,7R)-3-(3-(4-chloro-2-methyl-2H-indazol-5-yl)-1H-pyrazolo[3,4-b]pyrazin-6-yl)-7-(2,6-difluorophenyl)-3-azabicyclo[4.1.0]heptan-7-yl)methanamine], the IC50 in test [1] was under 500 nM; in test [2] (setting [3]), under 1000 nM.

As to `Cc1cc(C2(CN)C3CCN(c4cnc5c(-c6ccc7scnc7c6)n[nH]c5n4)CC32)no1` (stereo not shown) [Example 20, (3-(3-(benzo[d]thiazol-5-yl)-1H-pyrazolo[3,4-b]pyrazin-6-yl)-7-(5-methylisoxazol-3-yl)-3-azabicyclo[4.1.0]heptan-7-yl)methanamine], the IC50 in test [1] is under 500 nM; in test [2] (setting [3]) it was under 1000 nM.

For `CN(C)C(=O)Cn1ncc2c(Cl)c(-c3n[nH]c4nc(N5CC[C@@H]6[C@H](C5)[C@@]6(CN)c5ccccc5F)cnc34)ccc21` [Example 432], the IC50 was under 500 nM in test [1] and under 1000 nM in test [2] (setting [4]).

With `Cc1csc([C@@]2(CN)[C@@H]3CN(c4cnc5c(-c6ccc7c(cnn7C(F)F)c6Cl)n[nH]c5n4)C[C@@H]32)n1` [Example 506], the 50% inhibitory concentration (IC50) in test [1] is under 500 nM; in test [2] (setting [4]), under 1000 nM.

Consider `NC[C@]1(c2ccccc2F)[C@@H]2CCN(c3cnc4c(-c5ccc6c(c5)NC(=O)NC6)n[nH]c4n3)C[C@@H]21` [Example 372, 7-(6-((1S,6R,7R)-7-(aminomethyl)-7-(2-fluorophenyl)-3-azabicyclo[4.1.0]heptan-3-yl)-1H-pyrazolo[3,4-b]pyrazin-3-yl)-3,4-dihydroquinazolin-2(1H)-one], for which the IC50 in test [1] is under 500 nM; in test [2] (setting [3]), under 1000 nM.

For the compound `Cc1ccc([C@@]2(CN)[C@@H]3CN(c4cnc5c(-c6ccc7nn(C)cc7c6Cl)n[nH]c5n4)C[C@@H]32)nc1` [Example 493, ((1R,5S,6r)-3-(3-(4-chloro-2-methyl-2H-indazol-5-yl)-1H-pyrazolo[3,4-b]pyrazin-6-yl)-6-(5-methylpyridin-2-yl)-3-azabicyclo[3.1.0]hexan-6-yl)methanamine], the IC50 was under 500 nM in test [1] and under 1000 nM in test [2] (setting [3]).

As for `COc1c2c(Cl)c(-c3n[nH]c4nc(N5CC[C@@H]6[C@H](C5)[C@@]6(CN)c5cc(C)on5)cnc34)ccc2nn1C` [Example 109, ((1S,6R,7S)-3-(3-(4-chloro-3-methoxy-2-methyl-2H-indazol-5-yl)-1H-pyrazolo[3,4-b]pyrazin-6-yl)-7-(5-methylisoxazol-3-yl)-3-azabicyclo[4.1.0]heptan-7-yl)methanamine], the figures for the IC50 in test [1] and in test [2] (setting [3]) were under 500 nM and under 1000 nM, respectively.

Turning to `NC[C@]1(c2ccccc2F)[C@@H]2CCN(c3cnc4c(-c5ccc6nn(CC(F)(F)F)cc6c5Cl)n[nH]c4n3)C[C@@H]21` [Example 361, ((1S,6R,7R)-3-(3-(4-chloro-2-(2,2,2-trifluoroethyl)-2H-indazol-5-yl)-1H-pyrazolo[3,4-b]pyrazin-6-yl)-7-(2-fluorophenyl)-3-azabicyclo[4.1.0]heptan-7-yl)methanamine], the IC50 in test [1] is under 500 nM; in test [2] (setting [3]), under 1000 nM.

Regarding `Cc1csc([C@@]2(CN)[C@@H]3CN(c4cnc5c(-c6ccnc(N)c6Cl)n[nH]c5n4)C[C@@H]32)n1` [Example 517], the values for the IC50 in test [1] and in test [2] (setting [4]) were under 500 nM and under 1000 nM, respectively.

As to `NC[C@]1(c2ccccc2F)[C@@H]2CCN(c3cnc4c(-c5ccc6[nH]c(=O)[nH]c6c5)n[nH]c4n3)C[C@@H]21` [Example 239, 5-(6-((1S,6R,7R)-7-(aminomethyl)-7-(2-fluorophenyl)-3-azabicyclo[4.1.0]heptan-3-yl)-1H-pyrazolo[3,4-b]pyrazin-3-yl)-1,3-dihydro-2H-benzo[d]imidazol-2-one], the IC50 was under 500 nM in test [1] and under 1000 nM in test [2] (setting [3]).

As to `NC[C@]1(c2ccccc2F)[C@@H]2CCN(c3cnc4c(-c5ccnc(-c6ncco6)c5Cl)n[nH]c4n3)C[C@@H]21` [Example 170, ((1S,6R,7R)-3-(3-(3-chloro-2-(oxazol-2-yl)pyridin-4-yl)-1H-pyrazolo[3,4-b]pyrazin-6-yl)-7-(2-fluorophenyl)-3-azabicyclo[4.1.0]heptan-7-yl)methanamine], the IC50 was under 500 nM in test [1] and under 1000 nM in test [2] (setting [3]).
